SMILES strings stand for the structures. Counter-ions that a name gives are not always drawn.

What all share (type): functional, cell-based
A short description of test [1]: Cytotoxicity against human MCF7/ADM cells after 24 hrs by sulforhodamine B assay.
The test system of test [2] is NB-4. Nature of the test: Cytotoxicity against human NB4 cells after 72 hrs by MTT assay. The settings on record: NB-4, 72 h.
Test [3] concerns NCI-H1975. Nature of the test: Cytotoxicity against human NCI-H1975 cells after 24 hrs by sulforhodamine B assay. The settings on record: NCI-H1975, 24 h.
In test [4] the test system is HL-60. In words: Cytotoxicity against human HL60 cells after 72 hrs by MTT assay. The settings on record: HL-60, 72 h.
For test [5], the system named is HeLa. Nature of the test: Cytotoxicity against human HeLa cells after 24 hrs by sulforhodamine B assay.
Test [6] has as its system K562. Nature of the test: Cytotoxicity against human K562 cells after 72 hrs by MTT assay. Particulars: K562, 72 h.
Test [7] concerns HCT-116. In words: Cytotoxicity against human HCT116 cells after 24 hrs by sulforhodamine B assay. Particulars: HCT-116, 24 h.
For test [8], the system named is A549. Nature of the test: Cytotoxicity against human A549 cells after 24 hrs by sulforhodamine B assay. Particulars: A549, 24 h.

Take `COc1cccc2c1C(=O)c1c(O)c3c(c(O)c1C2=O)C[C@@](O)(C(=O)CO)C[C@@H]3O[C@H]1C[C@H](N)[C@H](O)[C@H](C)O1` [DOXORUBICIN HYDROCHLORIDE]: the figures for the IC50 in test [1], in test [2] and in test [3] were 25.2 µM, 0.4 µM and 0.2 µM, respectively.

Consider `COC(=O)c1[nH]cc(C/C=C(\C)CCC=C(C)C)c1NC(C)=O`, for which the IC50 in test [1], in test [4], in test [2], in test [5], in test [6] and in test [3] was more than 30 µM each time. For the same compound, the concentration for half-maximal inhibition (IC50) in test [7] and in test [8] was more than 30 µM in each case.

In the case of `C/C=C(\C)[C@H](OC)[C@H](C)/C=C(C)/C=C/C/C(C)=C/Cc1nc(OC)cc(O)c1C`, the IC50 in test [1] is more than 30 µM; in test [4], more than 30 µM; in test [2], 0.037 µM; in test [5], 0.003 µM; in test [6] it was more than 30 µM; in test [3] it was 0.49 µM. Moreover, the IC50 is more than 30 µM in test [7] and 0.56 µM in test [8].
